Results published in patent US12077503B2, “Substituted cyclic amides and their use as herbicides” (FMC CORPORATION, priority 2015, dated 2024).

How the values were obtained:
Format in all cases: in vivo
[1] = system: barnyardgrass (Echinochloa crus-galli); assay: Test G Pre-Emergence Protocol; details: Echinochloa crus-galli, pre-emergence, 312 h, evaluated after 13 days
Method in brief: (§1)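 Glasshouse pre-emergence test: soil-sown seeds, sprayed after 1 d at 15.625, 62.5 or 250 g/ha. Conditions 24/16° C day/night, 14 h light, 65% humidity, watering twice daily. Rating 13 d post-spray (100 = total damage).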

corn (Zea mays) [2] = assay: Test G Pre-Emergence Protocol; details: Zea mays, pre-emergence, 312 h, evaluated after 13 days
Method in brief: as §1

[3] = system: giant foxtail (Setaria faberi); assay: Test G Pre-Emergence Protocol; details: Setaria faberi, pre-emergence, 312 h, evaluated after 13 days
Method in brief: as §1

[4] = system: ivy-leaved morning glory (Ipomoea hederacea); assay: Test G Pre-Emergence Protocol; details: Ipomoea, pre-emergence, 312 h, evaluated after 13 days
Method in brief: as §1

[5] = system: redroot pigweed (Amaranthus retroflexus); assay: Test G Pre-Emergence Protocol; details: Amaranthus retroflexus, pre-emergence, 312 h, evaluated after 13 days
Method in brief: as §1

[6] = system: velvetleaf (Abutilon theophrasti); assay: Test G Pre-Emergence Protocol; details: Abutilon theophrasti, pre-emergence, 312 h, evaluated after 13 days
Method in brief: as §1

[7] = system: barnyardgrass (Echinochloa crus-galli); assay: Test G Post-Emergence Protocol; details: Echinochloa crus-galli, post-emergence, 312 h, read-out: Barnyardgrass damage rating
Method in brief: (§2)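 Post-emergence herbicidal damage, scored visually 0–100 at 13 days. Application at 15.625, 62.5 or 250 g/ha onto 8-day-old plants grown under glasshouse control.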

corn (Zea mays) [8] = assay: Test G Post-Emergence Protocol; details: Zea mays, post-emergence, 312 h, read-out: Corn damage rating
Method in brief: as §2

[9] = system: giant foxtail (Setaria faberi); assay: Test G Post-Emergence Protocol; details: Setaria faberi, post-emergence, 312 h, read-out: Foxtail, Giant damage rating
Method in brief: as §2

[10] = system: ivy-leaved morning glory (Ipomoea hederacea); assay: Test G Post-Emergence Protocol; details: Ipomoea, post-emergence, 312 h, read-out: Morningglory, Ivy-leaved damage rating
Method in brief: as §2

[11] = system: redroot pigweed (Amaranthus retroflexus); assay: Test G Post-Emergence Protocol; details: Amaranthus retroflexus, post-emergence, 312 h, read-out: Pigweed, Redroot damage rating
Method in brief: as §2

[12] = system: velvetleaf (Abutilon theophrasti); assay: Test G Post-Emergence Protocol; details: Abutilon theophrasti, post-emergence, 312 h, read-out: Velvetleaf damage rating
Method in brief: as §2

[13] = 15.625 g ai/ha, evaluated after 13 days (100=total damage to plant; 0=no damage to plant)
[14] = 62.5 g ai/ha, evaluated after 13 days, 100=total damage to plant, 0=no damage to plant
[15] = 250 g ai/ha, evaluated after 13 days, 100=total damage to plant, 0=no damage to plant

CN1C[C@H](c2ccc(C(F)F)cc2)[C@@H](C(=O)Nc2cccc(F)c2F)C1=O (racemic) [Compound 1728]
80%: plant injury at 62.5 g/ha (corn (Zea mays) [2]; 62.5 g ai/ha, 100=total damage to plant, 0=no damage to plant, read-out: Corn damage rating) | plant injury at 250 g/ha (corn (Zea mays) [2]; 250 g ai/ha, read-out: Corn damage rating (100=total damage to plant; 0=no damage to plant)) | pest or weed control at 15.625 g/ha ([3]; 15.625 g ai/ha, read-out: Foxtail, Giant damage rating (100=total damage to plant; 0=no damage to plant)) | pest or weed control at 250 g/ha ([4]; 250 g ai/ha, read-out: Morningglory, Ivy-leaved damage rating (100=total damage to plant; 0=no damage to plant)) | pest or weed control at 62.5 g/ha ([5]; 62.5 g ai/ha, 100=total damage to plant, 0=no damage to plant, read-out: Pigweed, Redroot damage rating) | pest or weed control at 250 g/ha ([5]; 250 g ai/ha, read-out: Pigweed, Redroot damage rating (100=total damage to plant; 0=no damage to plant)) | pest or weed control at 250 g/ha ([6]; 250 g ai/ha, read-out: Velvetleaf damage rating (100=total damage to plant; 0=no damage to plant)) | pest or weed control at 62.5 g/ha [7, 14] | pest or weed control at 250 g/ha [7, 15] | plant injury at 250 g/ha (corn (Zea mays) [8]; [15]) | pest or weed control at 15.625 g/ha [9, 13] | pest or weed control at 62.5 g/ha [9, 14] | pest or weed control at 250 g/ha [9, 15] | pest or weed control at 250 g/ha [11, 15]
60%: pest or weed control at 62.5 g/ha ([6]; 62.5 g ai/ha, 100=total damage to plant, 0=no damage to plant, read-out: Velvetleaf damage rating) | plant injury at 15.625 g/ha (corn (Zea mays) [8]; [13]) | plant injury at 62.5 g/ha (corn (Zea mays) [8]; [14]) | pest or weed control at 250 g/ha [12, 15]
0%: pest or weed control at 15.625 g/ha ([4]; 15.625 g ai/ha, read-out: Morningglory, Ivy-leaved damage rating (100=total damage to plant; 0=no damage to plant)) | pest or weed control at 15.625 g/ha [10, 13] | pest or weed control at 62.5 g/ha [11, 14]
70%: pest or weed control at 15.625 g/ha ([1]; 15.625 g ai/ha, read-out: Barnyardgrass damage rating (100=total damage to plant; 0=no damage to plant)) | pest or weed control at 15.625 g/ha [7, 13] | pest or weed control at 250 g/ha [10, 15]
20%: pest or weed control at 62.5 g/ha [10, 14] | pest or weed control at 15.625 g/ha [11, 13]
40%: pest or weed control at 15.625 g/ha ([6]; 15.625 g ai/ha, read-out: Velvetleaf damage rating (100=total damage to plant; 0=no damage to plant))
90%: pest or weed control at 62.5 g/ha ([1]; 62.5 g ai/ha, 100=total damage to plant, 0=no damage to plant, read-out: Barnyardgrass damage rating) | pest or weed control at 250 g/ha ([1]; 250 g ai/ha, read-out: Barnyardgrass damage rating (100=total damage to plant; 0=no damage to plant)) | pest or weed control at 62.5 g/ha ([3]; 62.5 g ai/ha, 100=total damage to plant, 0=no damage to plant, read-out: Foxtail, Giant damage rating) | pest or weed control at 250 g/ha ([3]; 250 g ai/ha, read-out: Foxtail, Giant damage rating (100=total damage to plant; 0=no damage to plant))
30%: plant injury at 15.625 g/ha (corn (Zea mays) [2]; 15.625 g ai/ha, read-out: Corn damage rating (100=total damage to plant; 0=no damage to plant)) | pest or weed control at 62.5 g/ha ([4]; 62.5 g ai/ha, 100=total damage to plant, 0=no damage to plant, read-out: Morningglory, Ivy-leaved damage rating) | pest or weed control at 15.625 g/ha ([5]; 15.625 g ai/ha, read-out: Pigweed, Redroot damage rating (100=total damage to plant; 0=no damage to plant)) | pest or weed control at 15.625 g/ha [12, 13] | pest or weed control at 62.5 g/ha [12, 14]
